Assay results published in patent US5512305A, “Invitroinhibition of the HIV virus with ionic tungstoniobate compounds” (priority 1990, dated 1996).

How the values were obtained:
cells = conditions: background statement; cited from earlier work
[1] = Storage stability / shelf-life; type: physicochemical
human PBMC = experiment: Cytotoxicity assay in uninfected PHA stimulated human PBMC (trypan blue dye-exclusion); type: cell-based; conditions: 6 days, cell viability
Procedure: (§1) Cells. Human peripheral blood mononuclear cells (PBMC) from healthy HIV-1 seronegative and hepatitis B virus seronegative donors were isolated by Ficoll-Hypaque discontinuous gradient centrifugation at 1,000×g for 30 minutes, washed twice in phosphate-buffered saline (pH 7.2; PBS), and pelleted at 300×g for 10 minutes. Before infection, the cells were stimulated by phytohemagglutinin […] at a concentration of 6 μg/ml for three days in RPMI 1640 medium supplemented with 15% heat-inactivated fetal calf serum, 1.5 mM L-glutamine, penicillin (100 U/ml), streptomycin (100 μg/ml), and 4 mM sodium bicarbonate buffer.
Cytotoxicity assay. The drugs were evaluated for their potential toxic affects on uninfected PHA stimulated human PBMC. Flasks were seeded so that the final cell concentration was 2×10^5 cells/mi. The cells were cultured with and without drug for 6 days, at which time aliquots were counted for cell viability, as assessed by the trypan blue dye-exclusion method using a hemacytometer. The median inhibitory concentration (IC50) was calculated using the median effect method (Chou et al, Elsevier-Biosoft, Elsevier Science Publishers, Cambridge, U.K., 1985; Chou et al, Adv. Enz. Regul. 22, 27-55, 1984). The results are reported as IC50 PBMC below.

HSV-1 = experiment: Plaque reduction assay for herpes simplex in Vero cells; type: cell-based
Text: Cell culture assays for herpes simplex.
Viruses. (HSV-1) Mycoplasma-free Vero cells, obtained from Flow Laboratory (McLean, Va.), were used for plaque assays.

HIV-1 (strain LAV-1) = experiment: Inhibition of virus replication in human PBMC (supernatant reverse transcriptase activity); type: cell-based; conditions: 50% inhibition of RT activity vs untreated controls, six days after infection
Procedure: as §1
Viruses. HIV-1 (strain LAV-1) was obtained from Dr. P. Feorino (Centers for Disease Control, Atlanta, Ga.). […]
PBMC. […] The mean reverse transcriptase (RT) activity of the inocula was 50,000 decompositions per min/ml corresponding to about 100 TCID50, as determined by Groopman et al. (Groopman et al, AIDS Res. Human Retro. 3, 71-85, 1987. The drugs at twice their final concentration in 5 ml of RPMI 1640 medium, supplemented as described above, were added to the cultures. Uninfected and untreated PBMC at equivalent cell densities were grown in parallel as controls. The cultures were maintained in a humidified 5% CO2 -95% air incubator at 37° C. for six days after infection, at which point all cultures were sampled for supernatant reverse transcriptase (RT) activity. […]
The RT assay was performed in 96-well microtiter plates, as described by Spira et al. (Spira et al, J. Clin. Microbiol. 22, 97-99, 1987). […] Four ml of scintillation fluid (Econofluor, NEN Research Products, Boston, Mass.) were added and the amount of radioactivity in each sample was determined using a Packard Tri-Carb liquid scintillation analyzer (model 2,000CA). […]

Vero cells = experiment: Cytotoxicity assay in Vero cells; type: cell-based
herpes virus = conditions: JP 64-38,022; cited from earlier work
HIV = conditions: Chemical and Engineering News, December 1986; cited from earlier work
[2] = compound abandoned; cited from earlier work

Molecule	IC50 (human PBMC)	EC50 (HSV-1)	EC50 (HIV-1 (strain LAV-1))	IC50 (Vero cells)	other results
Cc1cn([C@H]2C[C@H](N=[N+]=[N-])[C@@H](CO)O2)c(=O)[nH]c1=O [AZT]	–	–	–	–	toxicity to cells (cells): high toxicity to cells
(Me4 N)9 P2 Nb3 W15 O62 !.15H2 O.CH3 CN	–	–	–	–	stability on storage [1]: stable on storage
(Me4 N/Na/K)5 Nb3 W3 O19 !.nH2 O [Me4 N/Na/K!5 Nb3 W3 O19 !]	> 100 µM	5.66 µM	8.56 µM	> 100 µM	–
(Na/K)6 Nb4 W2 O19 !.nH2 O [Na/K!6 Nb4 W2 O19 !]	> 100 µM	> 100 µM	0.073 µM	> 100 µM	–
K5 BW12 O40	–	–	–	–	activity against herpes virus (herpes virus): activity against herpes virus
K7 PW10 Ti2 O40	–	–	–	–	activity against herpes virus (herpes virus): activity against herpes virus
Me3 NH!8 Si2 W18 Nb6 O77 !	> 100 µM	> 1 µM	0.081 µM	> 100 µM	–
silicotungstate acid [H4 SiW12 O40]	–	–	–	–	activity against HIV (HIV): has activity against HIV; toxicity in higher animals [2]: toxicity in higher animals
